“And” between values parts separate entries of the source, which are not always exact repeats. Equal entries are not always repeated.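 Exposure lasted 48 hours, with cells grown in 96-well plates and compounds tested at five concentrations. GI50 marks 50% less growth.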 The source made the active and inactive calls. Cut-off read from the data, not from the text of the source: active = GI50 up to about 1.1 µM and inactive = higher.
Tests used:
Test in all cases: inhibition of tumour cell growth, NCI panel, 48 h
MDA-N = system: MDA-N
RXF 393 = system: RXF 393
SF-295 = system: SF-295
HL-60 = system: HL-60
ACHN = system: ACHN
T47D = system: T47D
K562 = system: K562
SF-268 = system: SF-268
OVCAR-5 = system: OVCAR-5
HOP-92 = system: HOP-92
LOX IMVI = system: LOX IMVI
SK-MEL-2 = system: SK-MEL-2
MOLT-4 = system: MOLT-4
BT-549 = system: BT-549
MCF7 = system: MCF7
NCI/ADR-RES = system: NCI/ADR-RES
HCC 2998 = system: HCC 2998
COLO 205 = system: COLO 205
Hs-578T = system: Hs-578T

Measured: GI50

CC(=O)C(=[N+]=[N-])C(=O)N(C)CCC#N
inactive: MDA-N > 10 µM | RXF 393 > 10 µM | SF-295 > 10 µM | HL-60 > 10 µM | ACHN > 10 µM | T47D > 10 µM | K562 > 10 µM | SF-268 > 10 µM | OVCAR-5 > 10 µM | HOP-92 > 10 µM | LOX IMVI > 10 µM | SK-MEL-2 > 10 µM | MOLT-4 > 10 µM | BT-549 > 10 µM | MCF7 > 10 µM

SCc1ccc(CS)s1
inactive: MDA-N > 100 µM | SF-295 > 100 µM | HL-60 > 100 µM | NCI/ADR-RES > 100 µM | T47D > 100 µM | HCC 2998 > 100 µM | K562 > 100 µM | SF-268 > 100 µM | COLO 205 > 100 µM | OVCAR-5 > 100 µM | HOP-92 15.3 µM | LOX IMVI > 100 µM | MOLT-4 > 100 µM | BT-549 > 100 µM | MCF7 > 100 µM

O=C(c1ccccc1)N1CCC(CC2(c3cc4ccccc4[nH]3)OCCO2)CC1
inactive: MDA-N 26.2 µM | RXF 393 76 µM | SF-295 39.4 µM | ACHN 65.8 µM | NCI/ADR-RES > 100 µM | T47D 41.4 µM | K562 16.3 µM | SF-268 51.8 µM | COLO 205 21.2 µM | OVCAR-5 64 µM | HOP-92 21.2 µM | LOX IMVI 17.2 µM | SK-MEL-2 30.7 µM | MOLT-4 19.5 µM | BT-549 52.5 µM | MCF7 19.4 µM

CC1(C)CC[C@]2(C(=O)O)CC[C@]3(C)C(=CC[C@@H]4[C@@]5(C)C[C@H](O)[C@H](O)[C@@](C)(CO)C5=CC[C@]43C)[C@@H]2C1
inactive: MDA-N > 100 µM | SF-295 25.8 µM | HL-60 > 100 µM | Hs-578T 37.7 µM | ACHN 34.8 µM | NCI/ADR-RES 41.1 µM | T47D 35.8 µM | HCC 2998 35.4 µM | K562 50 µM | SF-268 43.1 µM | COLO 205 22.5 µM | OVCAR-5 > 100 µM | HOP-92 > 100 µM | LOX IMVI 71.3 µM | SK-MEL-2 > 100 µM | MOLT-4 35.6 µM | MCF7 46.7 µM

Cc1ccc(S(=O)(=O)Oc2nc3ccccc3nc2OS(=O)(=O)c2ccc(C)cc2)cc1
inactive: MDA-N > 100 µM | RXF 393 > 100 µM | SF-295 > 100 µM | HL-60 32.3 µM | Hs-578T > 100 µM | ACHN > 100 µM | NCI/ADR-RES > 100 µM | HCC 2998 > 100 µM | K562 32.4 µM | SF-268 > 100 µM | COLO 205 > 100 µM | OVCAR-5 > 100 µM | LOX IMVI > 100 µM | SK-MEL-2 > 100 µM | MOLT-4 71.3 µM | BT-549 > 100 µM | MCF7 > 100 µM

CNC(=O)N1N[C@H](c2ccccc2)[C@@H]1c1ccccc1.OB(O)O
inactive: MDA-N 28.1 µM | RXF 393 14.2 µM | SF-295 17.3 µM | HL-60 23.7 µM | Hs-578T 22.5 µM | ACHN 36.6 µM | NCI/ADR-RES 15.4 µM | HCC 2998 31 µM | K562 22.6 µM | COLO 205 20 µM | OVCAR-5 29.9 µM | HOP-92 26.3 µM | LOX IMVI 18 µM | SK-MEL-2 15.3 µM | MOLT-4 18.7 µM | BT-549 19.3 µM | MCF7 24 µM

CCOC1=NC(C(F)(F)F)(C(F)(F)F)N=C(N2CCCCC2)O1
inactive: RXF 393 > 100 µM | SF-295 > 100 µM | HL-60 29.3 µM | Hs-578T > 100 µM | ACHN > 100 µM | NCI/ADR-RES > 100 µM | T47D > 100 µM | K562 > 100 µM | SF-268 > 100 µM | COLO 205 > 100 µM | OVCAR-5 > 100 µM | HOP-92 > 100 µM | LOX IMVI > 100 µM | SK-MEL-2 > 100 µM | MOLT-4 > 100 µM | MCF7 > 100 µM

OC[C@@H](O)[C@H](O)[C@H](O)[C@@H](O)C1SCCCS1
inactive: MDA-N > 100 µM | RXF 393 > 100 µM | SF-295 > 100 µM | ACHN > 100 µM | NCI/ADR-RES > 100 µM | T47D > 100 µM | HCC 2998 > 100 µM | SF-268 > 100 µM | COLO 205 > 100 µM | OVCAR-5 > 100 µM | HOP-92 17.2 µM | SK-MEL-2 > 100 µM | MOLT-4 > 100 µM | BT-549 > 100 µM | MCF7 > 100 µM

CC(=O)SCCC(NC(=S)Nc1ccccc1)P(=O)(Oc1ccccc1)Oc1ccccc1 (centres undefined)
inactive: MDA-N > 100 µM | RXF 393 > 100 µM | SF-295 > 100 µM | HL-60 > 100 µM | Hs-578T > 100 µM | ACHN > 100 µM | NCI/ADR-RES > 100 µM | T47D > 100 µM | HCC 2998 > 100 µM | K562 > 100 µM | SF-268 > 100 µM | COLO 205 > 100 µM | OVCAR-5 > 100 µM | HOP-92 > 100 µM | LOX IMVI > 100 µM | MOLT-4 > 100 µM | MCF7 > 100 µM

O=C1C(=O)N(c2cccc(C(F)(F)F)c2)C(=S)N1c1ccccc1
inactive: MDA-N 25.5 µM | RXF 393 27.7 µM | SF-295 31.5 µM | HL-60 32.7 µM | Hs-578T 27.9 µM | ACHN 16.4 µM | NCI/ADR-RES 31.8 µM | T47D 25.4 µM | HCC 2998 42 µM | K562 34.5 µM | SF-268 43.9 µM | COLO 205 16.4 µM | OVCAR-5 30 µM | HOP-92 19.1 µM | LOX IMVI 1.91 µM | SK-MEL-2 19.1 µM | MOLT-4 38 µM

COC(=O)C1=COC(C)C2CN3CCc4c([nH]c5cc(OC)c(OC)cc45)C3CC12 (centres undefined)
inactive: MDA-N 55.7 µM | RXF 393 15.3 µM | SF-295 59.4 µM and 56.1 µM | HL-60 26.6 µM and 29.9 µM | Hs-578T > 100 µM and 54 µM | ACHN 36.3 µM and 31.3 µM | T47D 40.6 µM and 34.6 µM | HCC 2998 58.2 µM and 36.1 µM | K562 38.4 µM and 37.8 µM | SF-268 > 100 µM and 65 µM | COLO 205 34.9 µM and 29.9 µM | OVCAR-5 > 100 µM | HOP-92 22 µM and 40.8 µM | LOX IMVI > 100 µM and 55.5 µM | SK-MEL-2 > 100 µM | MOLT-4 35.5 µM and 28.6 µM

Cc1cn(C2CC(O)C(CO)O2)c(=O)n2nnnc12 (centres undefined)
inactive: SF-295 > 100 µM | HL-60 > 100 µM | HCC 2998 > 100 µM | K562 > 100 µM | SF-268 > 100 µM | COLO 205 > 100 µM | OVCAR-5 > 100 µM | HOP-92 > 100 µM | LOX IMVI > 100 µM | SK-MEL-2 > 100 µM | MOLT-4 > 100 µM

Reference: ChEMBL document CHEMBL1201862, “PubChem BioAssay data set” (2004)
